As usually defined, the MIC90 is an inhibitory concentration at the 90% level, which refers to growth in some studies and to a panel of isolates in others. Broadly, the MIC is the smallest concentration in the dilution series that meets the test's criterion for growth inhibition.

Common to all, as to assay type: cell-based
Assay [1] deals with genotypically distinct C. difficile (n = 33). In words: Broth macrodilution MIC. The following applies: Clostridioides difficile, BM, broth macrodilution.
The test system of assay [2] is C. difficile PCR ribotype 027 spores. In words: Phase-contrast microscopy of spore germination/outgrowth. The following applies: 10 mg/L for 2 h, washed 3x in PBS. Here is the method:
C. difficile spores were also exposed to 10 mg/L antimicrobial for 2 h, washed 3× in sterile PBS, re-suspended and inoculated into Brazier's broth medium (pH 7). Samples were removed at 2, 4, 6, 24, 32 and 48 h. Slides were viewed under phase-contrast microscopy and percentages of phase-bright spores, phase-dark spores and vegetative cells were recorded (FIG. 4).
Statistical analyses were performed by transforming percentage data using an Arcsin Transformation and analysed using a Wilcoxon signed rank test. P<0.05 was considered statistically significant. Supra-MIC concentrations of all antimicrobials prevented outgrowth but not germination of C. difficile spores.

For assay [3], the system named is C. difficile spores (PCR ribotypes 001, 106 and 027). In words: Viability (recovery) of spores after antibiotic exposure, cellulose acetate filtration (Examples 3A, 3B). Here is the method: The experiments were in general performed by mixing C. difficile spores with an antibiotic, filtering the solution through cellulose acetate filters to collect the spores, applying the spore-containing filters to nutrient agar, and determining the number of spores remaining on the filters after a selected period of time.
Therefore, the initial experiment included dilution of antimicrobial-containing spore suspensions prior to filtration and washing. Reaction volumes were 1 mL for all antimicrobial/control solutions.
1 mL of control (de-ionised water+/−Tween-80) and test (antimicrobial containing) solutions were inoculated with 10 μL C. difficile spores (3 strains; PCR ribotypes 001, 106 and 027). Spore suspensions (time=1 min or 30 min) were transferred to filtration cupules and the appropriate volume of diluent (sterile de-ionised water+/−Tween-80) was added to achieve the dilution factors noted above. Samples were filtered onto cellulose acetate filters and washed with a further 50 mL of the appropriate diluent. Filters were transferred aseptically to Braziers CCEY agar containing 5 mg/L lysozyme and 2% lysed horse blood. This procedure was completed in duplicate. The culture media were incubated in an anaerobic atmosphere at 37° C. for 48 h and the numbers of C. difficile colonies were recorded.
Diluent was first added to filtration cupules. 1 mL reactions were then added to the appropriate diluent (1 min and 30 min after reaction formation) and filtered onto cellulose acetate filters. The filters were washed with 50 mL of the appropriate diluent. The filters were then transferred aseptically to Braziers CCEY agar containing 5 mg/L lysozyme and 2% lysed horse blood. This procedure was completed in duplicate. Culture media were incubated in an anaerobic atmosphere at 37° C. for 48 h and the numbers of C. difficile colonies recorded

Assay [4] deals with C. difficile vegetative cultures and spores. As to the kind of experiment: Spiral gradient endpoint analysis MIC. The conditions noted are these: data not shown. As to the method: C. difficile PCR ribotypes 001, 106 and 027 were inoculated onto Columbia blood agar and incubated anaerobically (37° C.) for 10 d. Growth was harvested into sterile saline and alcohol shocked in an equal volume of 100% ethanol for 1 h. Alcohol-shocked spore suspensions were mixed by vortexing and sonicated for 5 minutes at room temperature. C. difficile phase-bright (non-germinated) spores were separated from phase-dark (germinated) spores and cellular debris by density gradient centrifugation (4000 rpm 15 minutes) following layering onto 50% (v/v in phosphate buffered saline) Urografin 370 (Schering, Germany). The density gradient centrifugation step was performed twice. Pellets of purified spores were re-suspended in sterile saline (1 mL per 10 Columbia blood agar plates harvested). Percentage phase-bright spores, phase-dark spores and vegetative cells were recorded using phase-contrast microscopy (×100 magnification).
A spiral plater (WASP2, Don Whitley Scientific, UK) was used to apply a logarithmic antibiotic gradient onto the surface of pre-dried (37° C. 20 minutes) Brazier's agar (pH 7). Agar with logarithmic antimicrobial gradients applied to their surface remained at room temperature for 1 h to allow the antimicrobial agent to adsorb into the agar. C. difficile vegetative cultures and spores (˜10^7 cfu/mL) were inoculated onto the agar surface (FIG. 1) with a sterile cotton swab and incubated anaerobically (37° C., 24 h). D-values were measured (in mm) and converted to MICs (Paton, J. H.1990. Int J Exp Clin Chemother. 9, 31-38).

The subject of assay [5] is genotypically distinct C. difficile (n = 33). As to the kind of experiment: Agar incorporation MIC. The conditions noted are these: for MIC90 / MIC range / MIC: AI; for MIC: read-out: GEO MIC. The source says:
Thirty-three genotypically distinct (by PCR ribotyping) C. difficile isolates were selected from a library of strains at the Leeds General Infirmary (Leeds, UK). Representative isolates of epidemic C. difficile PCR ribotypes 001, 106 and 027 were included in the panel. Control isolates of Staphylococcus aureus ATCC 29213, Enterococcus faecalis ATCC 29212 and Bacteroides fragilis ATCC 25285 were included in all MIC determinations to ensure procedure accuracy.
Agar incorporation MICs were determined based on the method of Freeman and Wilcox (J Antimicrob Chemother 2001; 47: 244-6). Briefly, bacteria were cultured in Schaedler's anaerobic broth (Oxoid, Basingstoke, UK) at 37° C. for 24 h in an anaerobic cabinet (Don Whitley Scientific, Shipley). […] Oritavancin was prepared in 0.002% P80. All antimicrobial solutions were sterilized by filtration through 0.22 um syringe filters. […] Wilkins Chalgren agar (Oxoid) incorporating doubling dilutions of antimicrobial agents (0.03-16 mg/L) was prepared with and without 0.002% P80 and with and without 2% lysed horse blood (E&O Labs, Bonneybridge, UK). All media and diluents were pre-reduced overnight in the anaerobic cabinet. Bacterial cultures were diluted in sterile saline and inoculated onto the surface of agar incorporation agar plates using a multipoint inoculator (˜10^4 cfu). Agar incorporation plates were incubated anaerobically for 48 h. MIC endpoints were read as the lowest concentration of antimicrobial agent where there is no apparent growth (disregarding a visible haze of growth or a single colony).

Structures are written as SMILES. Converted amounts (≈) assume the structure as drawn.

Consider `Cc1ncc([N+](=O)[O-])n1CCO` [metronidazole], for which the MIC90 in assay [1] was found to be 2 µg/mL (≈ 11.7 µM); in assay [5] (P80 no LHB), 2 µg/mL (≈ 11.7 µM); in assay [5] (no P80 no LHB), 2 µg/mL (≈ 11.7 µM); in assay [5] (no P80 with LHB) it was 2 µg/mL (≈ 11.7 µM); in assay [5] (Clostridioides difficile, P80 with LHB, read-out: MIC90) it was 2 µg/mL (≈ 11.7 µM). Further, the MIC in assay [1] (read-out: GEO MIC) was 0.56 µg/mL (≈ 3.27 µM); in assay [5] (Clostridioides difficile, P80 no LHB), 0.55 µg/mL (≈ 3.21 µM); in assay [5] (Clostridioides difficile, P80 with LHB), 0.55 µg/mL (≈ 3.21 µM); in assay [5] (Clostridioides difficile, no P80 no LHB), 0.53 µg/mL (≈ 3.1 µM); in assay [5] (Clostridioides difficile, no P80 with LHB), 0.69 µg/mL (≈ 4.03 µM). The “Outgrowth of C. difficile spores prior-exposed to antimicrobial” value in assay [2] is “not observed”. The “Recovery of C. difficile spores” value in assay [3] (Example 3A: diluent added after reaction solutions, 1 min and 30 min exposure) is recorded as 90-110 % of controls; in assay [3] (Example 3B: diluent added to cupules before reaction solutions, 1 min and 30 min) it was 95-110 % of controls. In addition, the “MICs for C. difficile vegetative cells versus spores” value in assay [4] was “did not differ substantially”. The MIC range in assay [5] (P80 no LHB) fell in the range of 0.25 to 2 µg/mL; in assay [5] (no P80 no LHB), 0.25 to 4 µg/mL; in assay [5] (no P80 with LHB), 0.5 to 4 µg/mL. In addition, the “Agar incorporation geometric mean MICs lower than oritavancin MICs” value in assay [5] (all agar conditions) was 2- to 5 fold. In addition, in assay [5] (all agar conditions), the “Agar incorporation geometric mean MICs lower than vancomycin MICs” value is 2- to 3 fold.

These data come from patent US8629100B2, “Method of inhibiting clostridium difficile by administration of oritavancin” (The Medicines Company, priority 2007, dated 2014).
